For eight compounds, TGI and GI50 results are on record in PubChem BioAssay (NCI).

Where “and” joins values, the source holds several entries; their conditions need not be identical. Equal values may be shown once.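 Five concentrations, 48 hours, 96-well plates. GI50: concentration for 50% inhibition of growth. TGI marks complete inhibition of growth.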 Where only a bound is given, the exact number is not on record here.

Among the test systems are HCT-15 colon; A549 NSCLC; SN12C renal; EKVX NSCLC; OVCAR-8 ovarian; SK-MEL-2 melanoma; HCT-116 colon; SF-268 CNS; HT29 colon; BT-549 breast.
Common to all, as to assay: growth of human tumour cells (NCI), 48 h

Take `CCOC(=O)C(Cc1ccc(N(CCCl)CCCl)cc1)NC(=O)C(Cc1ccccc1)NC=O` (centres undefined): the TGI was determined as 0.602 µM in the assay on HCT-15 colon; 0.727 µM in the assay on A549 NSCLC; 0.294 µM with SN12C renal; 0.538 µM in the assay on EKVX NSCLC; 0.527 µM in the assay on OVCAR-8 ovarian; 0.989 µM with SK-MEL-2 melanoma. In addition, the TGI was determined as 0.535 µM with HCT-116 colon, 0.299 µM in the assay on SF-268 CNS, 0.289 µM with HT29 colon and 0.756 µM with BT-549 breast.
In the case of `C1CN(c2nnc(N3CCC3)nn2)C1`, the TGI in the assay with HCT-15 colon is over 100 µM; with A549 NSCLC, over 100 µM; with SN12C renal it was 65.8 µM; in the assay with EKVX NSCLC it was over 100 µM; with OVCAR-8 ovarian, over 100 µM; in the assay with SK-MEL-2 melanoma it was over 89.5 µM. The TGI is over 100 µM in the assay with HCT-116 colon, over 100 µM in the assay on SF-268 CNS, over 56.2 µM in the assay on HT29 colon and over 100 µM in the assay with BT-549 breast.
On to `CCCCCCSSC(=S)N(CC)CC`, for which the GI50 with HCT-15 colon is 28.4 µM; in the assay on A549 NSCLC, 32.4 µM; in the assay on SN12C renal, 18.3 µM; with EKVX NSCLC, 37.1 µM; in the assay on OVCAR-8 ovarian it was 20 µM; in the assay on SK-MEL-2 melanoma it was 25 µM. Also, the GI50 in the assay on HCT-116 colon is 14.4 µM; with SF-268 CNS it was 33.5 µM; in the assay on HT29 colon, 20.5 µM; with BT-549 breast, 17.1 µM. In addition, the TGI in the assay on HCT-15 colon was over 100 µM; in the assay with A549 NSCLC, 98.6 µM; in the assay with SN12C renal it was 40.3 µM; with EKVX NSCLC, over 100 µM; in the assay on OVCAR-8 ovarian it was 46.6 µM; with SK-MEL-2 melanoma it was 58.7 µM. Further, the TGI with HCT-116 colon is 28.5 µM; in the assay on SF-268 CNS, over 100 µM; in the assay on HT29 colon, 38.8 µM; in the assay with BT-549 breast it was 45.2 µM.
`CCCCCCCCCCCCC(O)c1ccco1` (centres undefined): the GI50 in the assay on HCT-15 colon was 19.2 µM; in the assay with A549 NSCLC it was 25.5 µM; in the assay with SN12C renal, 17.1 µM; in the assay on EKVX NSCLC it was 20.8 µM; in the assay on OVCAR-8 ovarian, 25.6 µM; with SK-MEL-2 melanoma it was 22 µM. Also, the GI50 was 22.2 µM in the assay on HCT-116 colon, 19.1 µM in the assay on SF-268 CNS, 35.8 µM in the assay with HT29 colon and 20.1 µM in the assay on BT-549 breast. The TGI in the assay on HCT-15 colon came out at 36 µM; in the assay on A549 NSCLC, 48.1 µM; with SN12C renal, 31.7 µM; in the assay with EKVX NSCLC it was 38.8 µM; in the assay on OVCAR-8 ovarian, 52.9 µM; in the assay with SK-MEL-2 melanoma, 46 µM. Further, the TGI with HCT-116 colon was 52.1 µM; in the assay with SF-268 CNS it was 46 µM; in the assay with HT29 colon it was over 100 µM; with BT-549 breast, 40.8 µM.
As for `[N-]=[N+]=NCCCn1c2c(c3ccc([N+](=O)[O-])cc3c1=O)C(=O)c1cc(Br)ccc1-2`, the GI50 in the assay with HCT-15 colon, in the assay on A549 NSCLC, in the assay on SN12C renal, in the assay on EKVX NSCLC, in the assay on OVCAR-8 ovarian and in the assay with SK-MEL-2 melanoma was over 100 µM throughout. The GI50 in the assay with HCT-116 colon is 3.01 µM; in the assay with SF-268 CNS, over 100 µM; with HT29 colon, over 100 µM; in the assay with BT-549 breast, over 100 µM. Also, the TGI with HCT-15 colon, with A549 NSCLC, in the assay on SN12C renal, with EKVX NSCLC, in the assay with OVCAR-8 ovarian and in the assay on SK-MEL-2 melanoma was over 100 µM in each case. Moreover, the TGI in the assay with HCT-116 colon, in the assay with SF-268 CNS, in the assay on HT29 colon and in the assay on BT-549 breast was over 100 µM throughout.
Turning to `Cc1c(C#N)cccc1[C@@H](C)Nc1nnc(C)c2cnc(N3CCOCC3)cc12`, the GI50 in the assay with HCT-15 colon is 31.4 µM; in the assay with A549 NSCLC, 36.2 µM; in the assay with SN12C renal, 17.9 µM; in the assay on EKVX NSCLC it was 18.3 µM; with OVCAR-8 ovarian, 38.5 µM; with SK-MEL-2 melanoma, 21.1 µM. The GI50 in the assay on HCT-116 colon is 32.7 µM; in the assay on SF-268 CNS it was 14.1 µM; with HT29 colon, 35.2 µM; with BT-549 breast, 13.1 µM. For the same compound, the TGI in the assay on HCT-15 colon is over 100 µM; in the assay with A549 NSCLC, over 100 µM; in the assay on SN12C renal, over 100 µM; in the assay on EKVX NSCLC it was over 100 µM; with OVCAR-8 ovarian, over 100 µM; in the assay on SK-MEL-2 melanoma, 64.6 µM. Moreover, the TGI in the assay with HCT-116 colon is over 100 µM; in the assay with SF-268 CNS it was over 100 µM; in the assay with HT29 colon, over 100 µM; in the assay with BT-549 breast, 48.2 µM.
Consider `COc1ccc(-c2cncn2-c2cc(OC)c(OC)c(OC)c2)cc1`, for which the GI50 with HCT-15 colon is 0.17 µM; with A549 NSCLC, 0.471 µM; in the assay on SN12C renal, 0.527 µM; with EKVX NSCLC it was 3.06 µM; in the assay on OVCAR-8 ovarian, 1.07 µM; in the assay with SK-MEL-2 melanoma it was 0.045 µM. The GI50 is 2.01 µM in the assay on SF-268 CNS, 0.153 µM in the assay with HT29 colon and 0.249 µM in the assay on BT-549 breast. The TGI was over 91.9 µM with HCT-15 colon; over 63.8 µM in the assay with A549 NSCLC; over 100 µM in the assay with SN12C renal; over 100 µM with EKVX NSCLC; over 51.3 µM in the assay with OVCAR-8 ovarian; over 100 µM with SK-MEL-2 melanoma. In addition, the TGI is 4.78 µM with HCT-116 colon, 59.7 µM in the assay on SF-268 CNS, over 100 µM with HT29 colon and 52 µM in the assay on BT-549 breast.
For `COc1ccc(-c2cc3c(C)nc(N)nc3n(C3CCC(OCCO)CC3)c2=O)cn1` (centres undefined), the GI50 was 0.106 µM and 0.0974 µM with HCT-15 colon; 0.123 µM and 0.109 µM in the assay with A549 NSCLC; 0.079 µM and 0.0758 µM in the assay on SN12C renal; 0.0971 µM and 0.0465 µM in the assay on EKVX NSCLC; 0.141 µM and 0.128 µM in the assay on OVCAR-8 ovarian; 0.124 µM and 0.0674 µM in the assay on SK-MEL-2 melanoma. Further, the GI50 in the assay on HCT-116 colon was 0.243 µM and 0.222 µM; in the assay with SF-268 CNS, 0.0784 µM and 0.0779 µM; in the assay on HT29 colon it was 0.0781 µM and 0.0809 µM; in the assay with BT-549 breast, 0.0622 µM and 0.0317 µM. Also, the TGI in the assay with HCT-15 colon was > 6.21 µM and 5.11 µM; in the assay on A549 NSCLC, 0.959 µM and 0.489 µM; in the assay on SN12C renal, over 100 µM; in the assay on EKVX NSCLC, 0.7 µM and 0.396 µM; in the assay with OVCAR-8 ovarian, 2.36 µM and 1.41 µM; with SK-MEL-2 melanoma, 0.549 µM and 0.392 µM. In addition, the TGI is > 10 µM and 18.9 µM in the assay on HCT-116 colon; > 4.35 µM and 5.49 µM with SF-268 CNS; 1.83 µM and 0.747 µM in the assay on HT29 colon; 0.666 µM and 0.359 µM in the assay on BT-549 breast.
